Source: US9617256B2 (priority 2007, dated 2017)
Values after ≈ are worked out from the molar mass of the structure shown.

Key:
[1] = test system: ASAU001 (laboratory strain of S. aureus, ATCC29213); assay: MIC broth microdilution, ASAU001; assay type: cell-based; conditions: Staphylococcus aureus, ATCC29213, read-out: MIC ASAU001
Outline: (§1)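 MICs come from broth microdilution in cation-adjusted Mueller-Hinton broth, final inoculum 3×10^5–7×10^5 CFU/mL, 18-24 hours at 35° C. Levofloxacin and QC strains served as assay controls.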

APAE001 (ATCC27853) = assay: MIC broth microdilution, APAE001; assay type: cell-based, P. aeruginosa; conditions: Pseudomonas aeruginosa, ATCC27853, read-out: MIC APAE001, APAE001 is ATCC27853
Outline: as §1

[2] = test system: APAE006 (strain of P. aeruginosa in which all efflux pumps are inactivated); assay: microbe, parasite or virus in culture; assay type: cell-based; conditions: Pseudomonas aeruginosa, read-out: MIC APAE006, P. aeruginosa, all efflux pumps inactivated
Outline: (§2)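 Incubation: 35° C., ambient air, 18-24 h. Medium: cation-adjusted Mueller-Hinton broth with 2-fold serial dilutions of drug. Inoculum: 3×10^5–7×10^5 CFU/mL final, per CLSI microdilution method.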

AECO001 HSA AGP = assay: MIC broth microdilution, AECO001 HSA AGP; assay type: cell-based, E. coli; conditions: Escherichia coli
Outline: as §1

[3] = test system: AECO063 (ATCC25922 bearing an acrAB mutation); assay: microbe, parasite or virus in culture; assay type: cell-based, E. coli; conditions: Escherichia coli, ATCC25922, read-out: MIC AECO063
Outline: as §1

[4] = test system: APAE006 in the presence of 8 micrograms per milliliter of polymyxin B nonapeptide; assay type: cell-based, P. aeruginosa; conditions: in the presence of 8 micrograms per milliliter of polymyxin B nonapeptide
Outline: as §2

[5] = test system: AABA1060 (clinical isolate of Acinetobacter baumannii); assay: MIC broth microdilution, AABA1060; assay type: cell-based; conditions: Acinetobacter baumannii, read-out: MIC AABA1060
Outline: as §1

AECO001 (ATCC25922) = assay: MIC broth microdilution, AECO001; assay type: cell-based, E. coli; conditions: Escherichia coli, ATCC25922, read-out: MIC AECO001
Outline: as §1

SMILES | MIC [1] [µg/mL] | MIC (APAE001 (ATCC27853)) [µg/mL] | MIC [2] [µg/mL] | MIC (AECO001 HSA AGP) [µg/mL] | MIC [3] [µg/mL] | MIC APAE006 + PMBN [4] | MIC [5] [µg/mL] | MIC (AECO001 (ATCC25922)) [µg/mL]
C[C@@H](N)[C@H](NC(=O)c1ccc(C#Cc2ccc(CN3CCOCC3)cc2)cc1)C(=O)O [Example 117-2, (2S,3R)-3-Amino-2-[4-(4-morpholin-4-ylmethyl-phenylethynyl)-benzoylamino]-butyric acid] | > 64 | > 64 | > 64 | > 64 | > 64 | C (MIC's of greater than 16.0 μg/mL to 64.0 μg/mL = C) | > 64 | > 64
C[C@@H](N)[C@H](NC(=O)c1ccc(C#Cc2ccc(CN3CCC3)cc2)cc1)C(=O)NO [Example 118-1, N-((1S,2R)-2-Amino-1-hydroxycarbamoyl-propyl)-4-(4-azetidin-1-ylmethyl-phenylethynyl)-benzamide] | 16 to 64 (≈ 39.4 to 157 µM) | 2 to 16 (≈ 4.92 to 39.4 µM) | < 2 | 16 to 64 (≈ 39.4 to 157 µM) | 2 to 16 (≈ 4.92 to 39.4 µM) | A (MIC's of 2.0 μg/mL or less = A) | 16 to 64 (≈ 39.4 to 157 µM) | 16 to 64 (≈ 39.4 to 157 µM)
C[C@@H](N)[C@H](NC(=O)c1ccc(C#Cc2ccc(CN3CCc4[nH]ncc4C3)cc2)cc1)C(=O)NO [Example 118-2] | 16 to 64 (≈ 33.9 to 135 µM) | < 2 | < 2 | 16 to 64 (≈ 33.9 to 135 µM) | < 2 | A (MIC's of 2.0 μg/mL or less = A) | 2 to 16 (≈ 4.23 to 33.9 µM) | < 2
C[C@@H](N)[C@H](NC(=O)c1ccc(C#Cc2ccc(CN3CCC(F)(F)C3)cc2)cc1)C(=O)NO [Example 118-3] | 16 to 64 (≈ 35 to 140 µM) | 2 to 16 (≈ 4.38 to 35 µM) | < 2 | 2 to 16 (≈ 4.38 to 35 µM) | < 2 | A (MIC's of 2.0 μg/mL or less = A) | 2 to 16 (≈ 4.38 to 35 µM) | < 2
C[C@@H](N)[C@H](NC(=O)c1ccc(C#Cc2ccc(CNCC(C)(C)C)cc2)cc1)C(=O)NO [Example 118-4] | > 64 | < 2 | < 2 | 2 to 16 (≈ 4.58 to 36.7 µM) | < 2 | A (MIC's of 2.0 μg/mL or less = A) | 16 to 64 (≈ 36.7 to 147 µM) | < 2
C[C@@H](N)[C@H](NC(=O)c1ccc(C#Cc2ccc(CNCC3CCCO3)cc2)cc1)C(=O)NO (some centres unmarked) [Example 118-5] | > 64 | < 2 | < 2 | 2 to 16 (≈ 4.44 to 35.5 µM) | < 2 | A (MIC's of 2.0 μg/mL or less = A) | 16 to 64 (≈ 35.5 to 142 µM) | 2 to 16 (≈ 4.44 to 35.5 µM)
C[C@@H](N)[C@H](NC(=O)c1ccc(C#Cc2ccc(CNC3CCCC3)cc2)cc1)C(=O)NO [Example 118-6] | 16 to 64 (≈ 36.8 to 147 µM) | < 2 | < 2 | 2 to 16 (≈ 4.6 to 36.8 µM) | < 2 | A (MIC's of 2.0 μg/mL or less = A) | 16 to 64 (≈ 36.8 to 147 µM) | 2 to 16 (≈ 4.6 to 36.8 µM)
C[C@@H](N)[C@H](NC(=O)c1ccc(C#Cc2ccc(CN3CCCOCC3)cc2)cc1)C(=O)NO [Example 118-7] | 16 to 64 (≈ 35.5 to 142 µM) | < 2 | < 2 | 2 to 16 (≈ 4.44 to 35.5 µM) | < 2 | A (MIC's of 2.0 μg/mL or less = A) | 2 to 16 (≈ 4.44 to 35.5 µM) | < 2
C[C@@H](N)[C@H](NC(=O)c1ccc(C#Cc2ccc(CNCCC#N)cc2)cc1)C(=O)NO [Example 118-8] | 16 to 64 (≈ 38.1 to 153 µM) | < 2 | < 2 | 2 to 16 (≈ 4.77 to 38.1 µM) | < 2 | A (MIC's of 2.0 μg/mL or less = A) | 2 to 16 (≈ 4.77 to 38.1 µM) | < 2
C[C@@H](N)[C@H](NC(=O)c1ccc(C#Cc2ccc(CNCCF)cc2)cc1)C(=O)NO [Example 118-9] | 16 to 64 (≈ 38.8 to 155 µM) | < 2 | < 2 | 2 to 16 (≈ 4.85 to 38.8 µM) | < 2 | A (MIC's of 2.0 μg/mL or less = A) | 2 to 16 (≈ 4.85 to 38.8 µM) | < 2
